# Reference: PubChem BioAssay (NCI)
#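 Five compound concentrations were applied to cells in 96-well plates for 48 hours; endpoints were derived by simple linear interpolation of the resulting dose-response curve. At the TGI there is no net growth.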 Where a SMILES comes first, the peptide text is derived from it. [ ]: non-standard residue; d: D form. The star is where a group is joined. ξ: configuration not given here. ξW = NC(Cc1c[nH]c2ccccc12)C(=O)O; X30 = O=C(O)[C@H]1CCC[C@H]1N*; ξF = NC(Cc1ccccc1)C(=O)O; Boc = CC(C)(C)OC(=O)*; ξK = NCCCCC(N)C(=O)O; ξT = CC(O)C(N)C(=O)O; tBu = CC(C)(C)*
# Experiments:
# Experiment in all cases: inhibition of tumour cell growth, NCI panel, 48 h
# T-47D breast = system: T-47D breast
# NCI/ADR-RES ovarian = system: NCI/ADR-RES ovarian
# PC-3 prostate = system: PC-3 prostate
# MDA-MB-435 = system: MDA-MB-435
# UO-31 renal = system: UO-31 renal
# EKVX NSCLC = system: EKVX NSCLC
# K-562 leukemia = system: K-562 leukemia
# UACC-62 melanoma = system: UACC-62 melanoma
# CCRF-CEM leukemia = system: CCRF-CEM leukemia
# SW-620 colon = system: SW-620 colon
# NCI-H522 lung = system: NCI-H522 lung
# HCT-116 colon = system: HCT-116 colon
# NCI-H23 lung = system: NCI-H23 lung
# MOLT-4 leukemia = system: MOLT-4 leukemia
SMILES,TGI (T-47D breast) [µM],TGI (NCI/ADR-RES ovarian) [µM],TGI (PC-3 prostate) [µM],TGI (MDA-MB-435) [µM],TGI (UO-31 renal) [µM],TGI (EKVX NSCLC) [µM],TGI (K-562 leukemia) [µM],TGI (UACC-62 melanoma) [µM],TGI (CCRF-CEM leukemia) [µM],TGI (SW-620 colon) [µM],TGI (NCI-H522 lung) [µM],TGI (HCT-116 colon) [µM],TGI (NCI-H23 lung) [µM],TGI (MOLT-4 leukemia) [µM]
O=C1C(Cl)C(c2cccc(Br)c2)N1c1c(O)c(Cl)cc(Br)c1Cl (stereo unspecified),44.6,89.8,75.1,31.1,40,39,37.1,33.8,41.3,41.4,30,27.6,37.9,35.7
O=C1c2ccccc2-n2c1nc1cc(Cl)ccc1c2=O,48.8,> 100,> 100,4.23,> 100,> 100,> 100,32.1,9.2,,> 100,> 100,> 100,> 100
COC1CC(n2ccc(=O)[nH]c2=O)OC1CO (stereo unspecified),> 100,> 100,> 100,> 100,> 100,> 100,> 100,> 100,> 100,> 100,> 100,> 100,> 100,> 100
O=C(Oc1ccc(OC(Oc2ccccc2)c2ccccc2)cc1)c1ccccc1 (stereo unspecified),> 100,> 31.6,> 31.6,> 31.6,> 31.6,> 31.6,> 31.6,> 31.6,> 31.6,> 31.6,> 100,29.2,24.4,> 31.6
CCOC(=O)c1nc2cc(C(F)(F)F)ccc2nc1Oc1ccc(C(=O)OC)cc1,> 100,> 100,> 100,> 100,> 100,> 100,> 100,> 100,> 100,> 100,> 100,> 100,,> 100
N#Cc1nc(NC(=O)c2ccccc2)sc1N,> 10,> 10,> 10,> 10,> 10,> 10,> 10,> 10,> 10,> 10,> 10,> 10,> 10,> 10
Nc1nc(Sc2ccc([N+](=O)[O-])cn2)c2[nH]cnc2n1,> 42.3,30.3,47.6,> 46.1,24.7,50.2,> 100,11.6,> 41.5,> 100,40.2,> 39.7,31.2,> 35.8
O=C1Cc2c(-c3ccccc3)cc(-c3ccc4ccccc4c3)nc2-c2ccccc2N1,> 100,> 100,45.5,> 100,> 100,76.4,9.41,> 100,> 100,> 100,26.1,> 100,> 100,> 100
Cc1ccc(Nc2cc(=O)[nH]c(=O)[nH]2)cc1CS,> 100,> 100,> 100,> 100,> 100,> 100,> 100,> 100,> 100,> 100,> 100,> 100,> 100,> 100
Nc1ccc(-c2nc3ccccc3s2)cc1I,> 100,> 100,> 100,> 100,> 100,> 100,> 100,> 100,> 46.4,> 100,> 100,,> 100,> 46.4
CCN(CC)c1nc(=O)c(C(=O)C(C)(C)C)c(C(C)(C)C)o1,> 100,> 100,> 100,> 100,,> 100,> 100,> 100,> 100,> 100,> 100,> 100,> 100,> 100
CC1=C2c3ccccc3N(S(=O)(=O)c3ccccc3)[C@H]2[C@H](C(=O)N2C3CC4CC[C@@]3(CS2(=O)=O)C4(C)C)CC1 (stereo partly specified),> 100,> 100,> 100,> 100,54,> 100,> 100,> 100,> 100,> 100,42.6,> 100,> 100,75.9
CCN(CC)CCNc1ccc2ncn3c4c(OC)ccc(=O)c4c(O)c1c23,> 100,> 50.9,> 100,> 100,> 100,> 100,> 100,> 100,> 100,> 43.8,> 39.7,> 44.3,> 92.9,> 24.6
O=C1c2cscc2C(=O)c2c(OCc3ccccc3)ccc(OCc3ccccc3)c21,> 100,> 100,> 100,> 100,> 100,> 100,> 100,> 100,> 100,> 100,> 100,> 100,> 100,> 100
CC(=O)O[C@H]1CC[C@@]2(C)C(=CC[C@H]3[C@@H]4C/C(=C\c5ccncc5)[C@H](OC(C)=O)[C@@]4(C)CC[C@@H]32)C1,38.5,27.3,46.8,36.5,20.7,36.3,42.4,26.5,11.2,17.2,18.5,24.1,19.3,13.9
O=C(Nn1c(-c2ccccc2)nc2ccccc2c1=O)c1ccc(O)cc1,> 100,> 100,> 100,> 100,> 100,> 100,> 100,> 100,> 100,> 100,> 100,> 100,> 100,> 100

SMILES,TGI (T-47D breast) [µM],TGI (NCI/ADR-RES ovarian) [µM],TGI (PC-3 prostate) [µM],TGI (MDA-MB-435) [µM],TGI (UO-31 renal) [µM],TGI (EKVX NSCLC) [µM],TGI (K-562 leukemia) [µM],TGI (UACC-62 melanoma) [µM],TGI (CCRF-CEM leukemia) [µM],TGI (SW-620 colon) [µM],TGI (NCI-H522 lung) [µM],TGI (HCT-116 colon) [µM],TGI (NCI-H23 lung) [µM],TGI (MOLT-4 leukemia) [µM]
Nc1nc(NCC2(CO)CC(CCc3ccccc3)C2)cc(=O)[nH]1 (stereo unspecified),> 100,> 100,> 100,> 100,67.8,> 100,> 100,> 100,> 100,> 100,> 100,> 100,> 100,> 100
O=C(Nc1ccc(N2C(=O)CSC2c2cccs2)cc1)c1ccc(N2C(=O)CSC2c2cccs2)cc1 (stereo unspecified),> 100,> 100,> 100,> 100,> 100,> 100,> 100,> 100,> 100,> 100,> 100,> 100,96.4,> 100
CC(OC(C)(C)C)C(NC(=O)C(CCCCNC(=O)OC(C)(C)C)NC(=O)C(Cc1c[nH]c2ccccc12)NC(=O)C(N)Cc1ccccc1)C(=O)NC(Cc1ccccc1)C(=O)N[C@@H]1CCC[C@@H]1C(=O)O (stereo partly specified) (H-[ξF][ξW][ξK](Boc)[ξT](tBu)[ξF]-X30),> 100,> 100,> 100,> 100,> 100,> 100,> 100,85.5,92.4,> 100,41,> 100,> 100,> 100
O=[N+]([O-])c1cc(C(F)(F)F)ccc1S(=O)(=O)N[C@@H]1CCCC[C@H]1NS(=O)(=O)c1ccc(C(F)(F)F)cc1[N+](=O)[O-],> 50.7,10,14.1,8.07,> 23.2,93.3,> 36,13.4,7.87,53.8,4.76,20.1,6.92,
Cc1n(-c2ccccc2)c2c([n+]1Cc1ccc([N+](=O)[O-])cc1)C(=O)c1ccccc1C2=O,3.43,5.61,7.25,3.12,26.6,5.7,4.64,3.74,5.46,6.63,1.67,4.36,5.22,2.57
CCCCCCCCCCCCCCCCNc1ccc2c(c1)OCCOCCOCCOCCO2,9.2,6.4,6.43,11.1,8.88,14.4,10.7,11.1,7.62,13.3,8.68,11.3,11.5,6.19
CN(C)c1ccc(/C=C2\N=C(c3ccccc3)N(/N=C3\C(=O)Nc4ccccc43)C2=O)cc1,> 100,> 100,> 100,45.4,> 100,> 100,> 100,> 100,> 100,> 100,> 100,> 100,> 100,> 100
Cc1ccc(Cc2nn(C)c(=O)n2-n2cccc2)cc1,> 100,> 100,> 100,> 100,> 100,> 100,> 100,> 100,> 100,> 100,> 100,> 100,,> 100
CSc1n[nH]c2n[nH]c(C)c12,> 100,> 100,> 100,> 100,> 100,> 100,> 100,> 100,> 100,> 100,> 100,> 100,> 100,> 100
CC(=O)NC(CCCOC(C)=O)C(=O)NC(CCCOC(C)=O)C(=O)NC(CCCOC(C)=O)C(=O)NC(Cc1ccc([N+](=O)[O-])cc1)C(=O)NCC(=O)OCc1ccccc1 (stereo unspecified),> 100,> 100,> 100,> 100,> 100,> 100,> 100,> 100,> 100,> 100,> 100,> 100,> 100,> 100
O=C1CSC(c2ccccc2[N+](=O)[O-])N1c1ccc(-n2c(-c3ccccc3)nc3ccccc3c2=O)cc1 (stereo unspecified),98.4,> 100,> 100,> 100,> 100,> 100,> 100,> 100,> 100,> 100,> 100,> 100,> 100,> 100
Cc1ccc(C2SC(N)=Nc3c2c(C)nn3C(=O)c2ccc(Cl)cc2)cc1 (stereo unspecified),> 10,> 10,> 10,> 10,,> 10,> 10,> 10,> 10,> 10,> 10,> 10,> 10,> 10
COC(=O)CCSC1=CC(=O)c2nc3ccccc3c3ccnc1c23,44.1,46.6,36.7,> 27.5,31.7,40.7,> 42,21.7,> 26.6,> 53.1,3.74,42.2,32,50.4
N#Cc1c(-c2ccccc2)c(C#N)c(=S)n(C2OCC(O)C(O)C2O)c1N (stereo unspecified),> 100,> 100,> 100,> 100,> 100,,> 100,> 100,> 100,> 100,> 100,,> 100,> 100
Cc1ccc(-c2n[nH]c(=O)n2N2C(=O)C=CC2=O)cc1,> 100,> 100,> 100,> 100,,> 100,> 100,> 100,> 100,,> 100,> 100,> 100,> 100
C=CCN(c1cc(OCc2ccccc2)c2c(c1)c(C)cn2S(=O)(=O)c1ccccc1)S(C)(=O)=O,> 100,> 100,> 100,> 100,,> 100,> 100,> 100,> 100,> 100,> 100,> 100,> 100,> 100
